Reference: patent US12653883B2 (priority 2018, dated 2026)
“And” between values parts separate entries of the source, which are not always exact repeats. Identical values can stand only once.

Experiments:
C57BL/6J mice = conditions: mouse, in vivo
Balb/c mice = conditions: mouse, in vivo

With `C[C@@H]1CCN(C(=O)CC#N)C[C@@H]1N(C)c1ncnc2[nH]ccc12` [Tofacitinib] the “Increase in luciferase expression by pretreatment” value (C57BL/6J mice) was about 60 fold and the “Mean antigen-specific T-cells, IFNg+ (% of CD8)” value (Balb/c mice) was 13 % of CD8 and 12.9 % of CD8.
